Reference: patent EP0204215B1, “2-[(1H-benzimidazol-2-ylsulfinyl)methyl]-benzenamines” (G.D. Searle & Co., priority 1985, dated 1986)

What was measured:
(H⁺+K⁺)-ATPase = molecular target: T1, (H⁺+K⁺)-ATPase (Canis lupus familiaris, UniProt P50996); experiment: Inhibition of (H⁺+K⁺)-ATPase from canine gastric mucosa (release of inorganic phosphate); format: biochemical; conditions: microsomes from canine gastric mucosa, pH 6.0, preincubated 30 min at 37°; read-out: (H⁺+K⁺)-ATPase IC₅₀
T1 construct: The microsomes retained at the 15%-30% sucrose interface, after centrifugation at 250,000xg for sixty minutes, were used as the source of (H⁺+K⁺)-ATPase; from tissue; host or cells: gastric glandular mucosa of mongrel dogs (microsomal fraction, sucrose step gradient, lyophilized)
Experimental: Mongrel dogs weighing 15 to 25 kilograms were fasted for twenty-four hours, with water provided ad libitum. The animals were anesthetized with pentobarbital and the stomachs were removed. Subsequent tissue manipulations and subcellular fractionations were performed at 0 to 4°C. After the stomachs were cut open and rinsed with tap water, the antral and cardiac regions were removed and the remaining tissue was rinsed three times in saline. The glandular mucosa was removed mechanically, chopped finely in a medium containing 10 mM Tris hydrochloride (pH 7.4) and 250 mM sucrose, and homogenized. The homogenate was centrifuged at 20,000xg for twenty minutes and the pellet discarded. The supernatant was then centrifuged at 150,000xg for ninety minutes and the supernatant discarded. The pellet was resuspended in the Tris-HCl/sucrose medium by homogenization. Part (2 ml) of the resultant microsomal suspension was layered onto a step gradient consisting of 9 ml of 15% sucrose above 12 ml of 30% sucrose, each sucrose solution being buffered with 10 mM Tris hydrochloride (pH 7.4) containing 0.01% sodium aside. The microsomes retained at the 15%-30% sucrose interface, after centrifugation at 250,000xg for sixty minutes, were used as the source of (H⁺+K⁺)-ATPase. Microsomal preparations were lyophilized, a process that assured potassium ion permiability, and stored at -10° until used.
(H⁺+K⁺)-ATPase activity for each test compound was determined, in duplicate, by measuring the release of inorganic phosphate, which was assayed according to the method of J. ChandraRajan and L. Klein. Anal. Biochem., 72, 407-412 (1976). The (H⁺+K⁺)-ATPase assay medium consisted of 20 mM Mes-Tris (pH 6.0), 5 mM magnesium chloride, 25 mM sucrose, and 4mM Tris-ATP with or without 20 mM potassium chloride in a total volume of 2 ml. Microsomal suspensions (20 to 60 mcl, containing about 25 mcg protein) were added to the assay medium, without Tris-ATP, and then preincubated with a test compound for thirty minutes at 37°. The assay was initiated by adding Tris-ATP and the mixture was incubated another thirty minutes at 37°. A 200-mcl aliquot of the assay mixture was then added to 1.4 ml of a solution consisting of 0.1 M sodium acetate (pH 4.0) and 10% sodium dodecylsulfate, followed by the addition of 200 mcl each of 1% ammonium molybdate and 1% ascorbic acid. At least fifteen minutes later, the optical absorbance at 870 nm (which was proportional to inorganic phosphate concentration up to 100 nmoles per tube, as determined by a standard curve) was obtained. Enzyme activity was linear with incubation time.
(H⁺+K⁺)-ATPase activity is represented by the difference between the measured activities in the presence of potassium ion (K⁺-stimulated) and in the absence of potassium ion (basal). The concentration of a test compound required to inhibit 50% of the (H⁺+K⁺)-ATPase activity (i.e., the IC₅₀) was determined at least in duplicate using linear regression analysis of results obtained for three different compound concentrations ranging from 0.1 mcM to 0.2 mM.

Gastric Acid Secretion [1] = experiment: Inhibition of gastric acid secretion in meal-stimulated Pavlov pouch dog; format: in vivo, beagle dogs; conditions: four-hour period
Experimental: Adult female beagle dogs weighing 6 to 10 kilograms were obtained from Laboratory Research Enterprises (Kalamazoo, Mich.) or from Hazelton Research Animals (Cumberland, Va.). Surgical implantation of a Thomas-type gastric cannula into an innervated Pavlov pouch of each dog was performed by the method reported by L. Burrows et al., J. Surgical Res., 4, 147-150 (1964). After recovery from surgery, the dogs were trained to stand quietly, fully conscious, in Pavlov-type dog restraining slings. All dogs were deprived of food, but not water, for 24 hours prior to each assay. Basal acid secretion was measured by collecting from the cannulas for 30 minutes before dosing with a test compound. Solutions of the test compounds in iso-osmotic phosphate buffer (pH 7.4) were given either intravenously or directly into the Pavlov pouch. After 30 minutes the pouch was drained. The dogs were then fed 320 grams of dog food and gastric acid secretions were collected each half hour for four hours. Controls were determined in the same way except that only food (i.e., no test compound) was administered.
(§1) Data were analyzed for three different variables: volume of gastric juice, acid concentration, and total acid output. Percent inhibition for the four-hour experimental period was determined for each parameter by comparison with 3 to 4 controls. Estimates of ED₅₀ were determined from dose response curves.

Gastric Acid Secretion [2] = experiment: Inhibition of gastric acid secretion in gastric fistula beagle dogs (histamine-stimulated); format: in vivo; conditions: four-hour histamine stimulation; for Gastric-Fistula Beagle % Inhibition: 3 mg/kg dose; for inhibition in vivo at 3 mg/kg: Canis lupus familiaris, 4 h
Excerpt: Adult female beagle dogs weighing 6 to 11 kilograms obtained from Laboratory Research Enterprises (Kalamazoo, Mich.) or from Hazelton Research Animals (Cumberland, Va.) were surgically implanted with a simple Thomas-type gastric cannula. After recovery from surgery, the dogs were trained to stand quietly, fully conscious, in Pavlov-type dog restraining slings and were acclimated to intravenous infusion of histamine dihydrochloride. During the course of these studies, no dog was used more than once a week. All dogs were deprived of food, but not water, for 18 hours prior to each assay. Each dog was initially infused with 0.15 M sodium chloride solution at a constant rate of […]. The volume of gastric secretions, collected in plastic bottles affixed to the cannula, were measured to the nearest 0.1 ml at 30 minute intervals. One of the following protocols was followed, depending on the route chosen for administration of test compound.
Intravenous dosing: Following a 30-minute basal secretion period, test compounds were administered intravenously (i.v.). At the end of an additional 30 minute period, the saline infusion was replaced with histamine dihydrochloride in saline administered at a rate 15 mcg per kilogram of body weight per hour. Histamine stimulation was maintained for a maximum of four hours during which time gastric secretions were collected every 30 minutes. The pH and titratable acidity were determined for samples from each collection period.
Intragastric dosing: Following a 30-minute basal secretion period, the collection bottles were removed, dosing plugs were inserted, and test compounds were administered intragastrically (i.g.). At the end of a 30-minute drug absorption period, the stomachs were emptied, the collection bottles were reattached, and collections were resumed at 30-minute intervals. Simultaneously, the saline infusion was replaced with a continuous intravenous infusion of histamine dihydrochloride in saline administered for four hours at a rate 15 mcg per kilogram of body weight per hour.
Intraduodenal dosing: Dogs were also equipped with duodenal cannulas for intraduodenal (i.d.) administration of test compounds. Dosing was otherwise performed as described for intragastric dosing.
as §1, with “Data from each protocol” for “Data”, “gastric sample” for “different”, “each” for “the”, “controls in which only food was given.” for “controls.”, “ED₅₀'s” for “ED₅₀”

T1 sequence (P50996 whole entry): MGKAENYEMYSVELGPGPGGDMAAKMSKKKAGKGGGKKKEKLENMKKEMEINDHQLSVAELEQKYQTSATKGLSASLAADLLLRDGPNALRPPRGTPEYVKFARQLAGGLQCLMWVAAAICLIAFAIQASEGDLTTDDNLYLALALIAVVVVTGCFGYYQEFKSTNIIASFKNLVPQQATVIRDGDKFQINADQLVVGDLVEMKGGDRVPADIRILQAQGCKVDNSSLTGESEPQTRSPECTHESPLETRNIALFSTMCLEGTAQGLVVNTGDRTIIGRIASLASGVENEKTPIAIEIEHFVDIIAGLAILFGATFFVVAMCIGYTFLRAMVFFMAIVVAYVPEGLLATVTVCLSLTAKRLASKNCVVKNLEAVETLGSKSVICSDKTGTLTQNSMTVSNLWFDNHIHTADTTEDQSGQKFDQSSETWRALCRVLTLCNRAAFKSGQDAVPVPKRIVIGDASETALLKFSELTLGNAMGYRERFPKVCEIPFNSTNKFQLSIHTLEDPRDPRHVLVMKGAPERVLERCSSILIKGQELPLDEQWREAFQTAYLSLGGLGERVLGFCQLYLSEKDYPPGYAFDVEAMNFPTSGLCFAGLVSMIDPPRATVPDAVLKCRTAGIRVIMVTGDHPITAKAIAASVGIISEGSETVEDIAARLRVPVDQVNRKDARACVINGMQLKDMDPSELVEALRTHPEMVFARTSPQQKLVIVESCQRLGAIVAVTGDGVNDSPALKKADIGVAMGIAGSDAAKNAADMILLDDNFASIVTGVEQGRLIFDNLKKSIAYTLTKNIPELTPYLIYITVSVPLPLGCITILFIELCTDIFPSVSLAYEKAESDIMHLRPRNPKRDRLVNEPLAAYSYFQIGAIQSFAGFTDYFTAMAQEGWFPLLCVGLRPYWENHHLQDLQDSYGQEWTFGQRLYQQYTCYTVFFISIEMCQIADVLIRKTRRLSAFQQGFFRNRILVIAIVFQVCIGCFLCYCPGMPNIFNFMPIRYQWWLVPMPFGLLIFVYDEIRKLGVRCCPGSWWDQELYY
T1 sequence (P33704 whole entry partner): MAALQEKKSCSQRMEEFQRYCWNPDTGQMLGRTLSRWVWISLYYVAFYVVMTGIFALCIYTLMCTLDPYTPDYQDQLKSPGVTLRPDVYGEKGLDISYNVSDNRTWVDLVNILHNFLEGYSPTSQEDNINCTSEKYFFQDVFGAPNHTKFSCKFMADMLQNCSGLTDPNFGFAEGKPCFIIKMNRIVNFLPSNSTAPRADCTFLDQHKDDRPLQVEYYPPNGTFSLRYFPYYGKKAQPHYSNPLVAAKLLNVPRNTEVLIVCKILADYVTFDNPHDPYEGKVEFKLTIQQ

| Compound | IC50 ((H⁺+K⁺)-ATPase) [µM] | Gastric-Fistula Beagle % Inhibition (Gastric Acid Secretion [2]; i.d.) [i.d. %] | further results |
| --- | --- | --- | --- |
| COc1ccc2[nH]c([S+]([O-])Cc3ccccc3N)nc2c1 (stereo not drawn) [Example 5, 2-[[(5-methoxy-1H-benzimidazol-2-yl)sulfinyl]methyl]benzenamine] | – | – | Pavlov-Pouch Dog % Inhibition (Gastric Acid Secretion [1]; 3 mg/kg): 19 (3 mg/kg) %; Pavlov-Pouch Dog % Inhibition (Gastric Acid Secretion [1]; 10 mg/kg): 54 (10 mg/kg) % |
| Cc1ccc(N)c(C[S+]([O-])c2nc3ccccc3[nH]2)c1 (stereo not drawn) [Example 11, 2-[(1H-benzimidazol-2-ylsulfinyl)methyl]-4-methylbenzenamine] | – | – | Gastric-Fistula Beagle % Inhibition (Gastric Acid Secretion [2]; i.v.): 67 i.v. % |
| COc1ccc2[nH]c(SCc3cc(C)ccc3N)nc2c1 [Example 16, 2-[[(5-methoxy-1H-benzimidazol-2-yl)thio]methyl]-4-methylbenzenamine] | 0.85 | – | – |
| COc1ccc2[nH]c(SCc3cccc(C)c3N)nc2c1 [Example 18, 2-[[(5-methoxy-1H-benzimidazol-2-yl)thio]methyl]-6-methylbenzenamine] | 4.2 | – | Pavlov-Pouch Dog % Inhibition (Gastric Acid Secretion [1]; 3 mg/kg): 79 (3mg/kg) %; inhibition in vivo at 3 mg/kg (Gastric Acid Secretion [2]; intraduodenal, i.d.): 66%; inhibition in vivo at 3 mg/kg (Gastric Acid Secretion [2]; iv): 91%; inhibition in vivo at 3 mg/kg (Gastric Acid Secretion [2]; po, i.g.): 43% |
| Nc1ccccc1C[S+]([O-])c1nc2ccccc2[nH]1 (stereo not drawn) [Example 3, 2-[(1H-benzimidazol-2-ylsulfinyl)methyl] benzenamine hemihydrate] | – | 53 | Pavlov-Pouch Dog % Inhibition (Gastric Acid Secretion [1]; 1 mg/kg): 20 (1 mg/kg) %; Pavlov-Pouch Dog % Inhibition (Gastric Acid Secretion [1]; 10 mg/kg): 87 (10 mg/kg) % |
| Cc1ccc(CSc2nc3ccccc3[nH]2)c(N)c1C [Example 22, 2-[(1H-benzimidazol-2-ylthio)methyl]-5,6-dimethylbenzenamine] | 4.4 | – | inhibition in vivo at 3 mg/kg (Gastric Acid Secretion [2]; intraduodenal, i.d.): 37% |
| Cc1cccc(C[S+]([O-])c2nc3ccccc3[nH]2)c1N (stereo not drawn) [Example 13, 2-[(1H-benzimidazol-2-ylsulfinyl)methyl]-6-methylbenzenamine] | – | 44 | Pavlov-Pouch Dog % Inhibition (Gastric Acid Secretion [1]; 3 mg/kg): 43 (3 mg/kg) % |

More lines, main results first:

| IC50 ((H⁺+K⁺)-ATPase) [µM] | Compound | Gastric-Fistula Beagle % Inhibition (Gastric Acid Secretion [2]; i.d.) [i.d. %] | further results |
| --- | --- | --- | --- |
| 1.5 | Cc1cc(N)c(C[S+]([O-])c2nc3ccccc3[nH]2)c(C)c1C (stereo not drawn) [Example 30, 2-[(1H-benzimidazol-2-ylsulfinyl)methyl]-3,4,5-trimethylbenzenamine hemihydrate] | – | – |
| 0.82 | CCOc1ccc2[nH]c(SCc3cc(C)ccc3N)nc2c1 [Example 26, 2-[[(5-ethoxy-1H-benzimidazol-2-yl)thio]-methyl]-4-methylbenzenamine] | – | – |
| 5.4 | 2-[[[(5-(trifluoromethyl)-1H-benzimidazol-2-yl]thio]methyl]benzenamine [Example 20] | 72 | Gastric-Fistula Beagle % Inhibition (Gastric Acid Secretion [2]; i.v.): 96 i.v. % |
| 5.3 | 2-[[[(5-(trifluoromethy)1-1H-benzimidazol-2-yl]thio]methyl]-3,6-dimethylbenzenamine [Example 28] | – | – |
| 16 | COc1ccc2[nH]c([S+]([O-])Cc3c(N)cc(C)c(OC)c3C)nc2c1 (stereo not drawn) [Example 31, 2-[[(5-methoxy-1H-benzimidazol-2-yl)sulfinyl]methyl]-4-methoxy-3,5-dimethylbenzenamine] | 31 | – |
